Measured values taken from patent publication US8933089B2, “HIV inhibiting 5-amido substituted pyrimidines” (Janssen R & D Ireland, priority 2006, dated 2015).

Tests used:
Type in all cases: cell-based, HIV-1
HIV strain L100I = assay: Cellular anti-HIV assay in MT4 LTR-EGFP cells, mutant L100I; details: Human immunodeficiency virus 1, read-out: L100I pEC50 (converted)
Method: (§1) Because of the increasing emergence of drug resistant HIV strains, the present compounds were tested for their potency against clinically isolated HIV strains harbouring several mutations. These mutations are associated with resistance to reverse transcriptase inhibitors and result in viruses that show various degrees of phenotypic cross-resistance to the currently commercially available drugs such as for instance AZT and delavirdine.
(§2) The antiviral activity of the compound of the present invention has been evaluated in the presence of wild type HIV and HIV mutants bearing mutations at the reverse transcriptase gene. The activity of the compounds is evaluated using a cellular assay which was performed according to the following procedure.
(§3) The human T-cell line MT4 is engineered with Green Fluorescent Protein (GFP) and an HIV-specific promoter, HIV-1 long terminal repeat (LTR). This cell line is designated MT4 LTR-EGFP, and can be used for the in vitro evaluation of anti-HIV activity of investigational compounds. In HIV-1 infected cells, the Tat protein is produced which upregulates the LTR promotor and finally leads to stimulation of the GFP reporter production, allowing to measure ongoing HIV-infection fluorometrically. Analogously, MT4 cells are engineered with GFP and the constitutional cytomegalovirus (CMV) promotor. This cell line is designated MT4 CMV-EGFP, and can be used for the in vitro evaluation of cytotoxicity of investigational compounds. In this cell line, GFP levels are comparably to those of infected MT4 LTR-EGFP cells. Cytotoxic investigational compounds reduce GFP levels of mock-infected MT4 CMV-EGFP cells.
(§4) Effective concentration values such as 50% effective concentration (EC50) can be determined and are usually expressed in μM. An EC50 value is defined as the concentration of test compound that reduces the fluorescence of HIV-infected cells by 50%. The 50% cytotoxic concentration (CC50 in μM) is defined as the concentration of test compound that reduces fluorescence of the mock-infected cells by 50%. The ratio of CC50 to EC50 is defined as the selectivity index (SI) and is an indication of the selectivity of the anti-HIV activity of the inhibitor. The ultimate monitoring of HIV-1 infection and cytotoxicity is done using a scanning microscope. Image analysis allows very sensitive detection of viral infection. Measurements are done before cell necrosis, which usually takes place about five days after infection, in particular measurements are performed three days after infection.
(§5) The columns IIIB, L100I, etc. in the table list the pEC50 values against various strains IIIB, L100I, etc.

[1] = tested on: HIV strain IIIB (wild type); assay: Cellular anti-HIV assay in MT4 LTR-EGFP cells, strain IIIB (wild type); selectivity index versus cytotoxicity in mock-infected MT4 CMV-EGFP cells; details: for EC50: Human immunodeficiency virus 1, 72 h, wild type HIV strain IIIB, MT4 LTR-EGFP cells, fluorescence, three days after infection, read-out: IIIB pEC50 (converted); for IIIB pSi: selectivity index = ratio of CC50 (mock-infected MT4 CMV-EGFP cells) to EC50 (IIIB), given as p value
Method: as §2, §3, §4, §5
Strain IIIB is wild type HIV strain

HIV strain Y181C = assay: Cellular anti-HIV assay in MT4 LTR-EGFP cells, mutant Y181C; details: Human immunodeficiency virus 1, read-out: Y181C pEC50 (converted)
Method: as §1, §2, §3, §4, §5

HIV strain K103N = assay: Cellular anti-HIV assay in MT4 LTR-EGFP cells, mutant K103N; details: Human immunodeficiency virus 1, read-out: K103N pEC50 (converted)
Method: as §1, §2, §3, §4, §5

HIV strain MDR = assay: Cellular anti-HIV assay in MT4 LTR-EGFP cells, MDR strain; details: Human immunodeficiency virus 1, read-out: MDR pEC50 (converted)
Method: as §1, §2, §3, §4, §5
MDR refers to a strain that contains mutations L100I, K103N, Y181C, E138G, V1791, L2214F, V278V/I and A327A/V in HIV reverse transcriptase.

HIV strain L100I + K103N = assay: Cellular anti-HIV assay in MT4 LTR-EGFP cells, mutant L100I + K103N; details: Human immunodeficiency virus 1, 72 h, read-out: L100I + K103N pEC50 (converted)
Method: as §1, §2, §3, §4, §5

HIV strain Y188L = assay: Cellular anti-HIV assay in MT4 LTR-EGFP cells, mutant Y188L; details: Human immunodeficiency virus 1, read-out: Y188L pEC50 (converted)
Method: as §1, §2, §3, §4, §5

HIV strain K103N + Y181C = assay: Cellular anti-HIV assay in MT4 LTR-EGFP cells, mutant K103N + Y181C; details: Human immunodeficiency virus 1, 72 h, read-out: K103N + Y181C pEC50 (converted)
Method: as §1, §2, §3, §4, §5

| SMILES | EC50 (HIV strain L100I) [nM] | EC50 [1] [nM] | IIIB pSi [1] | EC50 (HIV strain Y181C) [nM] | EC50 (HIV strain K103N) [nM] | EC50 (HIV strain MDR) [nM] | EC50 (HIV strain L100I + K103N) [nM] | EC50 (HIV strain Y188L) [nM] | EC50 (HIV strain K103N + Y181C) [nM] |
| --- | --- | --- | --- | --- | --- | --- | --- | --- | --- |
| Cc1cc(/C=C/C#N)cc(C)c1Nc1nc(Nc2ccc(C#N)cc2)ncc1C(=O)N1CCCCC1 [Compound 2] | 63.1 | 3.16 | >3.90 | 126 | 12.6 | 10000 | 200 | 398 | 501 |
| Cc1cc(/C=C/C#N)cc(C)c1Nc1nc(Nc2ccc(C#N)cc2)ncc1C(=O)Nc1ccccn1 [Compound 3] | 5.01 | 2 | 4.00 | 15.8 | 3.16 | 2510 | 12.6 | 25.1 | 63.1 |
| Cc1cc(/C=C/C#N)cc(C)c1Nc1nc(Nc2ccc(C#N)cc2)ncc1C(=O)N(C)c1ccccc1 [Compound 5] | 25.1 | 5.01 | >3.70 | 100 | 10 | 3980 | 50.1 | 100 | 158 |
| Cc1cc(/C=C/C#N)cc(C)c1Nc1nc(Nc2ccc(C#N)cc2)ncc1C(=O)N1CCN(C)CC1 [Compound 6] | 158 | 1.58 | >4.20 | 100 | 5.01 | 10000 | 1260 | 316 | 398 |
| Cc1cc(/C=C/C#N)cc(C)c1Nc1nc(Nc2ccc(C#N)cc2)ncc1C(=O)N(C)CCO [Compound 7] | 7.94 | 1.58 | 4.00 | 20 | 2 | 2000 | 50.1 | 50.1 | 63.1 |
| COCCCNC(=O)c1cnc(Nc2ccc(C#N)cc2)nc1Nc1c(C)cc(/C=C/C#N)cc1C [Compound 9] | 5.01 | 2.51 | >4.00 | 12.6 | 3.16 | 1000 | 25.1 | 15.8 | 20 |
| Cc1cc(/C=C/C#N)cc(C)c1Nc1nc(Nc2ccc(C#N)cc2)ncc1C(=O)NCC1COC(C)(C)O1 (stereo not drawn) [Compound 10] | 3.98 | 2.51 | >4.00 | 15.8 | 3.16 | 501 | 39.8 | 20 | 63.1 |
| CCOC(=O)CN(C)C(=O)c1cnc(Nc2ccc(C#N)cc2)nc1Nc1c(C)cc(/C=C/C#N)cc1C [Compound 11] | 7.94 | 2 | 3.40 | 39.8 | 3.98 | 1580 | 50.1 | 25.1 | 79.4 |
| Cc1cc(/C=C/C#N)cc(C)c1Nc1nc(Nc2ccc(C#N)cc2)ncc1C(=O)NCC1CCCO1 (stereo not drawn) [Compound 12] | 2.51 | 1.26 | 4.10 | 15.8 | 2.51 | 1000 | 20 | 10 | 12.6 |
| CCOC(=O)CCNC(=O)c1cnc(Nc2ccc(C#N)cc2)nc1Nc1c(C)cc(/C=C/C#N)cc1C [Compound 14] | 2.51 | 2.51 | >4.00 | 12.6 | 2.51 | 631 | 15.8 | 12.6 | 10 |
| Cc1cc(/C=C/C#N)cc(C)c1Nc1nc(Nc2ccc(C#N)cc2)ncc1C(=O)NCc1ccncc1 [Compound 15] | 12.6 | 3.16 | 3.70 | 15.8 | 3.16 | 200 | 63.1 | 20 | 20 |
| Cc1cc(/C=C/C#N)cc(C)c1Nc1nc(Nc2ccc(C#N)cc2)ncc1C(=O)Nc1cccc(Cl)c1 [Compound 16] | 79.4 | 25.1 | 2.60 | 200 | 3.98 | 7940 | 501 | 501 | 316 |
| Cc1cc(/C=C/C#N)cc(C)c1Nc1nc(Nc2ccc(C#N)cc2)ncc1C(=O)NCc1ccco1 [Compound 19] | 3.98 | 3.98 | 3.60 | 20 | 3.98 | 1000 | 50.1 | 20 | 20 |
| Cc1cc(/C=C/C#N)cc(C)c1Nc1nc(Nc2ccc(C#N)cc2)ncc1C(=O)NCc1cccs1 [Compound 20] | 15.8 | 5.01 | 3.60 | 39.8 | 5.01 | 2510 | 100 | 50.1 | 31.6 |
| Cc1cc(/C=C/C#N)cc(C)c1Nc1nc(Nc2ccc(C#N)cc2)ncc1C(=O)NCC#N [Compound 21] | 3.98 | 15.8 | 2.80 | 15.8 | 5.01 | 501 | 15.8 | 15.8 | 15.8 |
| Cc1cc(/C=C/C#N)cc(C)c1Nc1nc(Nc2ccc(C#N)cc2)ncc1C(=O)NCCN(C)C [Compound 22] | 20 | 0.794 | 3.90 | 15.8 | 0.631 | 2000 | 100 | 50.1 | 20 |
